# Source: US9579328B2, “Prostaglandin and vasoconstrictor pharmaceutical compositions and methods of use” (ALLERGAN, INC., priority 2012, dated 2017)
# Read-outs that look alike come from different tables or passages of the source.
# Experiments:
# [1] = system: conjunctiva of patients; test: Phase 3 clinical studies, bimatoprost 0.03%/timolol 0.5% Combination versus bimatoprost monotherapy: conjunctival hyperaemia; assay type: in vivo, human
# Text: Approximately 60% of patients being treated for glaucoma require two or more agents (adjuvant therapy) to control the intraocular pressure. For this reason, combination therapies, in which two pharmaceutically active agents are combined in the same formulation, have been developed to decrease complexity in the treatment regimen, improve patient compliance, and to minimize the exposure to excipients with possible toxicity such as benzalkonium chloride. Currently, the most commonly prescribed adjuvant therapy includes a beta-blocker and a prostaglandin analogue. For this reason, Allergan has formulated bimatoprost 0.03% together with timolol 0.5% (Combination).
# [2] = system: conjunctiva of patients with bilateral open-angle glaucoma or ocular hypertension; conditions: bimatoprost 0.03% once daily, cited from earlier work
# [3] = system: patients with glaucoma or ocular hypertension; conditions: cited from earlier work
# [4] = system: conjunctiva of patients with primary open-angle glaucoma; conditions: cited from earlier work
# [5] = system: bulbar conjunctiva of patients; conditions: bimatoprost 0.03% q.d. for 60 days; biopsies at day 7 and impression cytology; cited from earlier work
# [6] = system: human cultured conjunctiva-derived epithelial cells; conditions: cited from earlier work
# [7] = system: rabbit isolated jugular veins; conditions: cited from earlier work
# [8] = system: eyes of conscious Beagle dogs; conditions: bimatoprost 0.1%, latanoprost 0.005%, cited from earlier work
# [9] = system: palpebral conjunctiva of New Zealand White (albino) rabbits; conditions: left eye, n = 16, cited from earlier work
# [10] = system: palpebral conjunctiva of Dutch-Belted (pigmented) rabbits; conditions: left eye, Bimatoprost 0.03% b.i.d. one month, n = 19; cited from earlier work
# [11] = system: palpebral conjunctiva of Dutch-Belted (pigmented) rabbits; set-up: key: N = Tissues within normal histological limits; conditions: left eye, n = 20, cited from earlier work
# [12] = system: palpebral conjunctiva of Beagle dogs; conditions: n = 6 per group, left eye, cited from earlier work
# [13] = system: lower palpebral conjunctiva of rabbits, dogs, and non-human primates; conditions: cited from earlier work
# [14] = Pooled 192024-018T & 021T (3 months), first line
# [15] = Pooled 192024-018T & 021T (3 months), second line
# [16] = Bimatoprost 0.001% q.i.d. one month
# [17] = Bimatoprost 0.01% q.i.d. one month
# [18] = Bimatoprost 0.1% q.i.d. one month
# [19] = Bimatoprost 0.03% b.i.d. 6 months
# [20] = Bimatoprost 0.03% q.d. 6 months
# [21] = Bimatoprost 0.1% b.i.d. 6 months
# [22] = bimatoprost 0.001% q.i.d. topical ocular for one month
# [23] = bimatoprost 0.01% q.i.d. topical ocular for one month
# [24] = bimatoprost 0.1% q.i.d. topical ocular for one month
compound,measurement,setting,value
"CCNC(=O)CCC/C=C\C[C@@H]1[C@@H](/C=C/[C@@H](O)CCc2ccccc2)[C@H](O)C[C@@H]1O [Bimatoprost, bimatoprost]","Incidence of Conjunctival hyperaemia Detected on Biomicroscopy, Biomicro ≧ +1",[1]; 192024-026T (3 weeks),18.9%
same,Incidence of Conjunctival hyperaemia Reported as a Treatment-Related AE (Rx-rel AE),[1]; 192024-026T (3 weeks),27.8%
same,"Incidence of Conjunctival hyperaemia Detected on Biomicroscopy, Biomicro ≧ +1",[1]; 192024-504T (3 months),21.1%
same,Incidence of Conjunctival hyperaemia Reported as a Treatment-Related AE (Rx-rel AE),[1]; 192024-504T (3 months),29.9%
same,"Incidence of Conjunctival hyperaemia Detected on Biomicroscopy, Biomicro ≧ +1",[1]; [14],30.9%
same,Incidence of Conjunctival hyperaemia Reported as a Treatment-Related AE (Rx-rel AE),[1]; [14],38.5%
same,"Incidence of Conjunctival hyperaemia Detected on Biomicroscopy, Biomicro ≧ +1",[1]; [15],41.5%
same,Incidence of Conjunctival hyperaemia Reported as a Treatment-Related AE (Rx-rel AE),[1]; [15],43.4%
same,time at which frequency and severity of hyperemia peaked after the first instillation,"[2]; 39 patients, slit-lamp biomicroscopy",approximately 1 day
same,hyperemia returning to near baseline levels,[2]; month-long study,≤ 28 days
same,clinical significance of the hyperemia,[2],not clinically significant
same,mean laser-flare photometry readings and mean changes from baseline,"[3]; 1 year, bimatoprost 0.03% once or twice daily, timolol maleate 0.5% twice daily, subset of 310 patients",no significant differences among the treatment groups
same,safety and tolerability,[3]; study extension to 2 years,safe and well-tolerated
same,eyes with signs of inflammatory cell margination or infiltration,"[4]; bimatoprost 0.03% q.d. 2 to 4 weeks, eyes with hyperemia (2/9)",22%
same,eyes with vascular congestion,"[4]; bimatoprost 0.03% q.d. 2 to 4 weeks, eyes with hyperemia (7/9)",78%
same,eyes that developed conjunctival hyperemia,[4]; bimatoprost 0.03% q.d. for 2 to 4 weeks,Nine of 13
same,evidence of inflammation,[5],no evidence of inflammation
same,direct stimulation of inflammatory pathways involving adhesion molecules or class II antigens,[6]; in vitro,None of the drugs appeared to induce direct stimulation of inflammatory pathways
same,toxicity observed,[6]; primarily related to the concentration of benzalkonium chloride,mild
same,response in the endothelium-denuded preparation,"[7]; endothelium-denuded, histamine precontracted, bimatoprost",inactive
same,EC50,"[7]; endothelium-intact jugular veins, 3 μM histamine precontracted, read-out: vasorelaxant response EC50",3.98 µM
same,ocular surface hyperemic response (severity),"[8]; D-NAME treated control eyes, scale 0=none, 0.5=trace, 1=mild, 2=moderate, 3=severe",trace to mild
same,effect of L-NAME on elicited ocular surface hyperemia,"[8]; L-NAME 1% treated eyes, PGE2 0.01%, 0-6 h",blocked
same,"Incidence of minimal-to-mild mononuclear cell infiltration in palpebral conjunctiva, Lower Eyelid",[9]; [16],12 number of animals
same,"Incidence of minimal-to-mild mononuclear cell infiltration in palpebral conjunctiva, Upper Eyelid",[9]; [16],4 number of animals
same,"Incidence of minimal-to-mild mononuclear cell infiltration in palpebral conjunctiva, Lower Eyelid",[9]; [17],13 number of animals
same,"Incidence of minimal-to-mild mononuclear cell infiltration in palpebral conjunctiva, Upper Eyelid",[9]; [17],6 number of animals
same,"Incidence of minimal-to-mild mononuclear cell infiltration in palpebral conjunctiva, Lower Eyelid",[9]; [18],14 number of animals
same,"Incidence of minimal-to-mild mononuclear cell infiltration in palpebral conjunctiva, Upper Eyelid",[9]; [18],8 number of animals
same,"Incidence of mononuclear cell infiltration in palpebral conjunctiva, Lower Eyelid, Minimal/mild",[10],12 number of animals
same,"Incidence of mononuclear cell infiltration in palpebral conjunctiva, Lower Eyelid, Moderate",[10],0 number of animals
same,"Incidence of mononuclear cell infiltration in palpebral conjunctiva, Upper Eyelid, Minimal/mild",[10],6 number of animals
same,"Mononuclear cell infiltration in palpebral conjunctiva, Lower Eyelid",[11]; [19],N
same,"Mononuclear cell infiltration in palpebral conjunctiva, Upper Eyelid",[11]; [19],N
same,"Mononuclear cell infiltration in palpebral conjunctiva, Lower Eyelid",[11]; [20],N
same,"Mononuclear cell infiltration in palpebral conjunctiva, Upper Eyelid",[11]; [20],N
same,"Mononuclear cell infiltration in palpebral conjunctiva, Lower Eyelid",[11]; [21],N
same,"Mononuclear cell infiltration in palpebral conjunctiva, Upper Eyelid",[11]; [21],N
same,"Incidence of minimal-to-mild mononuclear cell infiltration in palpebral conjunctiva (number of animals with histopathologic findings), Lower Eyelid",[12]; [22],3
same,"Incidence of minimal-to-mild mononuclear cell infiltration in palpebral conjunctiva (number of animals with histopathologic findings), Upper Eyelid",[12]; [22],4
same,"Incidence of minimal-to-mild mononuclear cell infiltration in palpebral conjunctiva (number of animals with histopathologic findings), Lower Eyelid",[12]; [23],5
same,"Incidence of minimal-to-mild mononuclear cell infiltration in palpebral conjunctiva (number of animals with histopathologic findings), Upper Eyelid",[12]; [23],3
same,"Incidence of minimal-to-mild mononuclear cell infiltration in palpebral conjunctiva (number of animals with histopathologic findings), Lower Eyelid",[12]; [24],6
same,"Incidence of minimal-to-mild mononuclear cell infiltration in palpebral conjunctiva (number of animals with histopathologic findings), Upper Eyelid",[12]; [24],5
same,"Incidence of inflammatory infiltrates above background, lower palpebral conjunctiva: number of animals with histopathologic findings (per total number of animals)","[13]; Dogs, Beagle, 1 month, 0.1% q.i.d. topical",0 (6)
same,"Incidence of inflammatory infiltrates above background, lower palpebral conjunctiva: number of animals with histopathologic findings (per total number of animals)","[13]; Monkeys, Cynomolgus, 12 months, 0.1% b.i.d. topical",0 (60)
same,"Incidence of inflammatory infiltrates above background, lower palpebral conjunctiva: number of animals with histopathologic findings (per total number of animals)","[13]; Rabbits, Dutch-Belted, 1 month, 0.03% b.i.d. topical",0 (19)
same,"Incidence of inflammatory infiltrates above background, lower palpebral conjunctiva: number of animals with histopathologic findings (per total number of animals)","[13]; Rabbits, Dutch-Belted, 6 months, 0.1% b.i.d. topical",1 (20)
same,"Incidence of inflammatory infiltrates above background, lower palpebral conjunctiva: number of animals with histopathologic findings (per total number of animals)","[13]; Rabbits, New Zealand White, 1 month, 0.1% q.i.d. topical",0 (16)
same,compound-related findings in eyes of the animal species,"[13]; multiple subclinical, clinical, and exaggerated doses","No compound-related findings of corneal toxicity, discomfort or irritation, or histopathological changes"
same,in-life evaluations: treatment-related ocular surface inflammation,[13]; periods of up to one year exposure,no treatment-related ocular surface inflammation
